# The source made the active and inactive calls.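 How the source made its calls: active means IC50 at or below 20 µM in the dose response; inactive means the rest.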
# Tested on: HL-1 cardiomyocytes, H2O2 protection, ATPLite, 2 h
# Experiment: HL-1 cardiomyocyte survival under H2O2 injury – cell-based, hydrogen peroxide, ATP luminescence, SAR follow-up (AID 623872)
row,SMILES,IC50
1,COc1ccc(-c2cc(C(=O)Nc3ccccc3)c3ccccc3n2)cc1OC,> 79 µM (inactive)
2,Cc1ccc2cc(CN(Cc3cccnc3)S(=O)(=O)c3ccc(F)cc3)c(=O)[nH]c2c1,> 79 µM (inactive)
3,COc1ccc(-n2cc(-c3ccccc3)c3c(N4CCCC4)ncnc32)cc1,> 79 µM (inactive)
4,CCCN(CC(=O)Nc1ccccc1OC)C(=O)c1cc(-c2cccs2)nn1-c1ccccc1,> 79 µM (inactive)
5,Cc1ccc(S(=O)(=O)N2CCN(C(=O)c3cc(=O)[nH]c4ccccc34)CC2)cc1C,> 79 µM (inactive)
6,CCN(CC)S(=O)(=O)c1cc(C(=O)N2CCN(Cc3cccc4cccnc34)CC2)ccc1C,> 79 µM (inactive)
7,CCCn1c(SC(C(=O)Nc2cccc(OC)c2)c2ccccc2)nc2ccccc2c1=O (stereo not given),> 79 µM (inactive)
8,Cc1ccc(-c2[nH]c3ccccc3c2C(=O)C(=O)N(C)C)cc1,> 79 µM (inactive)
9,COc1cccc(NC(=O)C(Sc2nc3ccccc3c(=O)n2CC(C)C)c2ccccc2)c1 (stereo not given),> 79 µM (inactive)
10,COc1ccc(NC(=O)CN(C)C(=O)c2cc(-c3cccs3)nn2-c2ccccc2)cc1,> 79 µM (inactive)
11,COc1cc(-c2cc(C(=O)Nc3cccc(C(C)=O)c3)c3ccccc3n2)cc(OC)c1OC,2.08 µM
12,O=C1c2ccccc2N2C(=O)c3ccccc3[C@H]2N1c1ccccc1,> 79 µM (inactive)
13,Cc1ccc2cc(CN(C)S(=O)(=O)c3ccc(F)cc3)c(=O)[nH]c2c1,> 79 µM (inactive)
14,O=c1[nH]c2ccccc2cc1CN(Cc1ccco1)S(=O)(=O)c1ccc(F)cc1,> 79 µM (inactive)
15,COc1ccc(-c2cc(C(=O)NCc3ccccc3)c3ccccc3n2)cc1OC,> 79 µM (inactive)
16,COc1ccc2cc(C(=O)N3CCN(S(=O)(=O)c4ccc(C)cc4C)CC3)c(C)nc2c1,> 79 µM (inactive)
17,CCN(CC)C(=O)C(=O)c1c(-c2ccccc2)[nH]c2ccccc12,> 79 µM (inactive)
18,COc1ccc(-n2cc(-c3ccccc3)c3c(N4CCCCC4)ncnc32)cc1,> 79 µM (inactive)
19,COc1ccc(-n2cc(-c3ccccc3)c3c(NCc4ccccc4)ncnc32)cc1,> 79 µM (inactive)
20,COc1ccc2c(c1OC)C(=O)N1c3ccccc3C(=O)N(c3ccc(F)cc3)C21 (stereo not given),35.6 µM (inactive)
21,NC(=O)c1nsc(C(=O)N(c2cccc(F)c2)C(C(=O)NC2CCCC2)c2ccc(O)cc2)c1N (stereo not given),> 79 µM (inactive)
22,COc1ccc2cc(C(=O)N3CCN(S(=O)(=O)c4cc(C)ccc4C)CC3)c(C)nc2c1,> 79 µM (inactive)
23,O=C(C(=O)N1CCCC1)c1c(-c2ccccc2)[nH]c2ccccc12,> 79 µM (inactive)

row,SMILES,IC50
1,COc1cccc(CN(C)C(=O)c2cc(-c3ccc(OC)c(OC)c3)nc3ccccc23)c1,> 79 µM (inactive)
2,COc1cccc(CN(C)C(=O)c2cc(-c3ccccc3)nc3ccc(C)cc23)c1OC,> 79 µM (inactive)
3,COc1ccc(-c2cc(C(=O)N(C)C)c3ccccc3n2)cc1OC,> 79 µM (inactive)
4,COc1ccc2c(c1OC)C(=O)N1c3ccccc3C(=O)N(c3ccccc3C)C21 (stereo not given),> 79 µM (inactive)
5,COc1ccccc1N1C(=O)c2ccccc2N2C(=O)c3c(ccc(OC)c3OC)C12 (stereo not given),77.1 µM (inactive)
6,COc1ccc(S(=O)(=O)N(Cc2cccnc2)Cc2cc3ccccc3[nH]c2=O)cc1,> 79 µM (inactive)
7,NC(=O)c1nsc(C(=O)N(Cc2ccccc2)C(C(=O)NCc2ccc(F)cc2)c2ccc(O)cc2)c1N (stereo not given),> 79 µM (inactive)
8,Cc1ccc(C)c(S(=O)(=O)N2CCN(C(=O)c3cc4cc(C)ccc4nc3C)CC2)c1,> 79 µM (inactive)
9,CC(C)CCNC(=O)C(c1ccc(O)cc1)N(C(=O)c1snc(C(N)=O)c1N)c1ccccc1F (stereo not given),> 79 µM (inactive)
10,COc1ccc2c(c1OC)C(=O)N1c3ccccc3C(=O)N(c3cccc(Br)c3)C21 (stereo not given),1.89 µM
11,Cc1ccc(S(=O)(=O)N(Cc2cccnc2)Cc2cc3ccccc3[nH]c2=O)cc1,> 79 µM (inactive)
12,COCCn1c(SC(C(=O)Nc2cc(C)ccc2C)c2ccccc2)nc2ccccc2c1=O (stereo not given),> 79 µM (inactive)
13,CCN(CC(=O)Nc1ccc(OC)cc1)C(=O)c1cc(-c2cccs2)nn1-c1ccccc1,> 79 µM (inactive)
14,COc1ccc(N2C(=O)c3ccccc3N3C(=O)c4c(ccc(OC)c4OC)C23)cc1 (stereo not given),> 79 µM (inactive)
15,O=C(C(=O)N1CCCCC1)c1c(-c2ccccc2)[nH]c2ccccc12,> 79 µM (inactive)
16,COc1ccc(-c2cc(C(=O)NCc3ccco3)c3ccccc3n2)cc1OC,> 79 µM (inactive)
17,Cc1ccc(NC(=O)CN(C)C(=O)c2cc(-c3cccs3)nn2-c2ccccc2)cc1,> 79 µM (inactive)
18,COc1ccc(-c2cc(C(=O)N(C)Cc3ccc(OC)c(OC)c3OC)c3ccccc3n2)cc1OC,> 79 µM (inactive)
19,COc1cccc(NC(=O)CN(C)C(=O)c2cc(-c3cccs3)nn2-c2ccccc2)c1,> 79 µM (inactive)
20,Cc1ccccc1N(C(=O)c1snc(C(N)=O)c1N)C(C(=O)NCc1ccc(F)cc1)c1ccc(O)cc1 (stereo not given),> 79 µM (inactive)
21,COCCNC(=O)C(c1ccc(O)cc1)N(C(=O)c1snc(C(N)=O)c1N)c1ccccc1F (stereo not given),> 79 µM (inactive)
22,COc1ccc2c(=O)c(C(=O)N3CCN(S(=O)(=O)c4c(C)cc(C)cc4C)CC3)c[nH]c2c1,> 79 µM (inactive)

# — PubChem BioAssay AID623872 (Sanford-Burnham Center for Chemical Genomics, 2012)
